Reference: ChEMBL document CHEMBL5727581, “Triazole DAGLα inhibitors” (2020)

Key:
[1] = biological target: T1, Diacylglycerol lipase-beta (Homo sapiens, UniProt Q8NCG7); assay: (§1) In Vitro Inhibition of DAGL: Briefly, membrane proteome (1 mg/ml, 20 μL) was prepared from HEK293T cells (transiently transfected with hDAGLα-FLAG or hDAGLα-S472A-FLAG, hDAGLβ-FLAG or hDAGLβ-S443A-FLAG) as described in Example 16. The proteome was incubated at room temperature with vehicle (DMSO) or compound in 0.5 μL DMSO for 30 min. The membrane proteome sample was subsequently treated for 30 min with HT-01 probe (1 μM) or FP-Rh probe (1 μM). The reactions were quenched with 10 μL 3× Laemmli sample buffer (final concentrations: 60 mM Tris-Cl pH 6.8, 2% (w/v) SDS, 10% (v/v) glycerol, 5% (v/v) (3-mercaptoethanol, 0.01% (v/v) bromophenol blue). The samples were directly loaded and resolved on SDS page gel (10% acrylamide). The gels were scanned using a ChemiDoc MP system (Cy3 settings, 605/50 filter).The resolved proteins were transferred from the gels to a polyvinyldifluoride membrane for Western Blotting using a Trans-Blot® Turbo (BioRad). FLAG-tagged enzymes were stained using rabbit anti-FLAG as primary antibody, and goat-anti-rabbit HRP as secondary antibody. The blot was developed in the dark using a 10 mL luminal solution, 100 μL ECL enhancer and 3 μL H2O2. Chemiluminescence was visualized using a ChemiDoc XRS (BioRad).The percentage of DAGL activity remaining in the assayed samples was determined by measuring the integrated optical intensity of the fluorescent protein bands of the Western Blot using image lab 4.1. The relative intensity was compared to the vehicle (DMSO) treated proteins, which were set to 100%. IC50 values were determined by plotting a log(inhibitor) vs. normalized response (Variable slope) dose-response curve generated using Prism software (GraphPad).
T1 sequence (Q8NCG7 whole entry): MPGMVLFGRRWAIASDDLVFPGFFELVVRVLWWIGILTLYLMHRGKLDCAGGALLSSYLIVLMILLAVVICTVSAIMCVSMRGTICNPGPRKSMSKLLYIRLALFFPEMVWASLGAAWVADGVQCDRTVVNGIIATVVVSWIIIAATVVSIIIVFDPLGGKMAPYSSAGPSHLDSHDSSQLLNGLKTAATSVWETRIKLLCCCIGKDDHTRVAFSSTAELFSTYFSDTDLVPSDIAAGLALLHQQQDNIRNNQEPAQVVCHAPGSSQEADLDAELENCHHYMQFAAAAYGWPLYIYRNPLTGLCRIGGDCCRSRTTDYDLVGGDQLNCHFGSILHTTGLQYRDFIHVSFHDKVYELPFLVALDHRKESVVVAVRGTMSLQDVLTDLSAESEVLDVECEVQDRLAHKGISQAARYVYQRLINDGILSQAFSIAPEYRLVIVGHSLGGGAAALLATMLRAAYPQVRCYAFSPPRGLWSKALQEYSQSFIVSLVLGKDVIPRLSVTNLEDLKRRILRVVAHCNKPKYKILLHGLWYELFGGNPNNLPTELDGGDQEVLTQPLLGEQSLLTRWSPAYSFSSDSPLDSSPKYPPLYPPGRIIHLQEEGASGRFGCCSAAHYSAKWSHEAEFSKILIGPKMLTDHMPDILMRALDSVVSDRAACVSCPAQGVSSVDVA

[2] = biological target: T2, Diacylglycerol lipase-alpha (Homo sapiens, UniProt Q9Y4D2); assay: as §1
T2 sequence (Q9Y4D2 whole entry): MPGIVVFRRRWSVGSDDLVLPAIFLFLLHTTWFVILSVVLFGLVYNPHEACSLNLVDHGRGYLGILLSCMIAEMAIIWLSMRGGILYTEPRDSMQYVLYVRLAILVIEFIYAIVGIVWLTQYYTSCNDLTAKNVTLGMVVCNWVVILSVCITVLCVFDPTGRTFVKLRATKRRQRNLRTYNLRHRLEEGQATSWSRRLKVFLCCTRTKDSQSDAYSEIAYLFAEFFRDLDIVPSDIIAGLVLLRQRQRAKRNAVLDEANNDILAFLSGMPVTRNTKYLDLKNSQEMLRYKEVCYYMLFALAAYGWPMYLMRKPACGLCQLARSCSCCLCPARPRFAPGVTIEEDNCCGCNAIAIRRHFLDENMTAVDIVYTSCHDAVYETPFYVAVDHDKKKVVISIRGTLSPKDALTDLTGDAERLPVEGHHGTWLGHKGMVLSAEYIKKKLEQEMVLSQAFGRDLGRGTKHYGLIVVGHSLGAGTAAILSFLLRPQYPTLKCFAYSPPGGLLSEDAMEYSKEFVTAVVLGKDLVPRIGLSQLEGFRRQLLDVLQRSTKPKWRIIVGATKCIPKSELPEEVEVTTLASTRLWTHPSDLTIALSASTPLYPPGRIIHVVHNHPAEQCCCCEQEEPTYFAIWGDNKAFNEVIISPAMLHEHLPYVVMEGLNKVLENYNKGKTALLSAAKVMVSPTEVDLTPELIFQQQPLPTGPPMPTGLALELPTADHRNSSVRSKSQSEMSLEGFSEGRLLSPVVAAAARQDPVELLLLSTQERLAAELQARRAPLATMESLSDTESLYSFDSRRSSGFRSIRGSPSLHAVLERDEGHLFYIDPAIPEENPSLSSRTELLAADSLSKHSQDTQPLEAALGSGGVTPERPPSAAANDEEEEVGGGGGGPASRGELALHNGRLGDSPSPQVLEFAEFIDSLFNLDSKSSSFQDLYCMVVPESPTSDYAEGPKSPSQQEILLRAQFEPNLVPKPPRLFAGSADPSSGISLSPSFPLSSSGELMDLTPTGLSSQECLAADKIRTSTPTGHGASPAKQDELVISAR

| IC50 [1] [nM] | IC50 [2] [nM] | SMILES |
| --- | --- | --- |
| < 400 |  | CCC(CC)CN(CCc1ccccc1)C(=O)n1ncc(-c2ccc(OC(F)(F)F)cc2)n1 |
| < 400 | < 400 | CCC(CC)CN(CCc1ccccc1)C(=O)n1cc(-c2ccc(OC(F)(F)F)cc2)nn1 |
